Data reported in paper PMC3508153 (Journal of medicinal chemistry, 2012).

Assays:
in vivo [1] = conditions: rat, plasma, po, 10 mg/kg
in vivo [2] = conditions: rat, plasma, iv, 2 mg/kg
[3] = In vivo PK after oral administration in rats, incl. brain and plasma levels; conditions: rat, oral 10 mg/kg; for Vd: sodium salt; for Brain: brain harvested at or near Tmax; for Plasma: plasma harvested at or near Tmax
in vivo [4] = conditions: rat, plasma, ip, 10 mg/kg

## O=C(O)c1cc(-c2cccc(COc3ccc4c(c3)CN(C3CCCC3)C4=O)c2)ccc1Cl [Compound 2]
In vivo [1]
  AUC(0-t): 42.5 µM·h
In vivo [2]
  AUC(0-t): 11.8 µM·h

## O=C(O)c1cc(-c2cccc(COc3ccc4c(=O)n(C5CC5)sc4c3)c2)ccc1Cl [Compound 3e, 4-Chloro-3'-((2-cyclopropyl-3-oxo-2,3-dihydrobenzo[d]isothiazol-6-yloxy)methyl)biphenyl-3-carboxylic acid]
In vivo [1]
  AUC(0-t): 61.5 µM·h
[3]
  Vd: 4.1 mL
  Brain: 0.03 ± 0.01 µM
  Plasma: 0.8 ± 0.2 µM

## COc1ccc(C(=O)O)cc1-c1cccc(COc2ccc3c(c2)CN(C2CCCC2)C3=O)c1 [Compound 15a, 3'-((2-Cyclopentyl-1-oxoisoindolin-5-yloxy)methyl)-6-methoxybiphenyl-3-carboxylic acid]
In vivo [1]
  AUC(0-t): 12 µM·h
[3]
  Vd: 10875.2 mL
  Brain: 0.18 ± 0.01 µM
  Plasma: 1.46 ± 0.29 µM

## O=C(O)c1cc(-c2cccc(COc3ccc4c(c3)CN(C3CCCC3)C4=O)c2)ccc1O [Compound 15b, 3'-((2-Cyclopentyl-1-oxoisoindolin-5-yloxy)methyl)-4-hydroxybiphenyl-3-carboxylic acid]
In vivo [1]
  AUC(0-t): 7.1 µM·h
In vivo [2]
  AUC(0-t): 2.57 µM·h
[3]
  Vd: 28.0 mL
  Brain: 0.0071 ± 0.0004 µM
  Plasma: 0.21 ± 0.046 µM

## O=C(O)c1cc(-c2cccc(-c3ccc4c(c3)CN(C3CCCC3)C4=O)c2)ccc1Cl [Compound 24, 4-Chloro-3'-(2-cyclopentyl-1-oxoisoindolin-5-yl)biphenyl-3-carboxylic acid]
In vivo [1]
  AUC(0-t): 2.67 µM·h
In vivo [4]
  AUC(0-t): 3.23 µM·h
[3]
  Vd: 96.2 mL
